Legend:
[1] = Effects of pH on stability under extreme conditions (60° C., 21-day storage); type: physicochemical; parameters: key to Color tone: +++: deep brown; ++: slightly deep brown; +: light brown; ±: very little discoloration; −: no discoloration; key to Precipitation: +: visible precipitates; −: no precipitates; details: 0.56 w/v % glycine, 0.22 w/v % citric acid, 0.9 w/v % NaCl; for Total amount of related substances (%): HPLC
Protocol: (§1) The analysis was performed using liquid chromatography as described in the purity test of acetaminophen (related substances) prescribed in the manual of the Japanese pharmacopoeia, 15th edition. That is, each solution was subjected to HPLC using an octadecyl silica gel column and a mobile phase prepared by mixing methanol and a potassium dihydrogen phosphate solution, the peak areas at the detection wavelength of 225 nm were determined by an automatic integration method, and the percentage of the summed peak areas of the related substances to the total area of all peaks (total amount of related substances (%)) was calculated.
Aqueous solutions with the pHs shown in Table 4 below were prepared by mixing 1 w/v % of acetaminophen, 0.56 w/v % of glycine, 0.22 w/v % of citric acid, 0.9 w/v % of NaCl, and NaOH or H3PO4 (q.s.). The aqueous solutions were autoclaved at 121° C. for 20 minutes and then stored at 60° C. for 21 days. Subsequently, the aqueous solutions were visually observed in terms of the color tone (the degree of discoloration) and the presence of precipitates. In addition, the concentration of acetaminophen-related substances in each aqueous solution was determined by HPLC.

[2] = Stability under high-temperature and high-pressure conditions (121° C., 1 hour): color tone, precipitation, related substances by HPLC; type: physicochemical; parameters: key to Color tone: +++: deep brown; ++: slightly deep brown; +: light brown; ±: very little discoloration; −: no discoloration; key to Precipitation: +: visible precipitates; −: no precipitates; details: 1 w/v % acetaminophen, 5 w/v % xylitol, pH 5, 1-hour treatment; for Total amount of related substances (%): HPLC peak area 225 nm
Protocol: Aqueous compositions containing glycine at the concentrations shown in Table 1 below, 1 w/v % acetaminophen, 5 w/v % xylitol and phosphoric acid (q.s.) and having the pH of 5 were heat-treated at 121° C. for 1 hour, and subsequently visually observed in terms of the color tone (the degree of discoloration) and the presence of precipitates.
In addition, the concentration of acetaminophen-related substances in each aqueous composition was determined by HPLC. The HPLC conditions were as follows.
as §1

For `CC(=O)Nc1ccc(O)cc1` [acetaminophen, N-(4-hydroxyphenyl)acetamide], the Color tone ([1]; pH 2, 1 w/v % acetaminophen) was “+++”, the Precipitation ([1]; pH 2, 1 w/v % acetaminophen) was “+” and the “Total amount of related substances (%)” value ([1]; pH 2, 1 w/v % acetaminophen) was 12.18%. For the same compound, the Color tone ([1]; pH 3, 1 w/v % acetaminophen) was “++”, the Precipitation ([1]; pH 3, 1 w/v % acetaminophen) was “+” and the “Total amount of related substances (%)” value ([1]; pH 3, 1 w/v % acetaminophen) was 5.44%. For the same compound, the Color tone ([1]; pH 4, 1 w/v % acetaminophen) was “±”, the Precipitation ([1]; pH 4, 1 w/v % acetaminophen) was “+” and the “Total amount of related substances (%)” value ([1]; pH 4, 1 w/v % acetaminophen) was 0.8%. For the same compound, the Color tone ([1]; pH 5, 1 w/v % acetaminophen) was “±”, the Precipitation ([1]; pH 5, 1 w/v % acetaminophen) was “−” and the “Total amount of related substances (%)” value ([1]; pH 5, 1 w/v % acetaminophen) was 0.05%. The Color tone ([1]; pH 6, 1 w/v % acetaminophen) was “+”, the Precipitation ([1]; pH 6, 1 w/v % acetaminophen) was “−” and the “Total amount of related substances (%)” value ([1]; pH 6, 1 w/v % acetaminophen) was 0.05%. For the same compound, the Color tone ([1]; pH 7, 1 w/v % acetaminophen) was “++”, the Precipitation ([1]; pH 7, 1 w/v % acetaminophen) was “−” and the “Total amount of related substances (%)” value ([1]; pH 7, 1 w/v % acetaminophen) was 0.06%. The Color tone ([1]; pH 8, 1 w/v % acetaminophen) was “+++”, the Precipitation ([1]; pH 8, 1 w/v % acetaminophen) was “+” and the “Total amount of related substances (%)” value ([1]; pH 8, 1 w/v % acetaminophen) was 0.07%. The Color tone ([2]; glycine 0 w/v %) was “+”, the Precipitation ([2]; glycine 0 w/v %) was “−” and the “Total amount of related substances (%)” value ([2]; glycine 0 w/v %) was 0.33%. The Color tone ([2]; glycine 0.14 w/v %) was “−”, the Precipitation ([2]; glycine 0.14 w/v %) was “−” and the “Total amount of related substances (%)” value ([2]; glycine 0.14 w/v %) was 0.03%. The Color tone ([2]; glycine 0.28 w/v %) was “−”, the Precipitation ([2]; glycine 0.28 w/v %) was “−” and the “Total amount of related substances (%)” value ([2]; glycine 0.28 w/v %) was 0.01%. The Color tone ([2]; glycine 0.56 w/v %) was “−”, the Precipitation ([2]; glycine 0.56 w/v %) was “−” and the “Total amount of related substances (%)” value ([2]; glycine 0.56 w/v %) was 0%.

From patent publication US20140179795A1, “Agent for Stabilizing Acetaminophen” (priority 2010, published 2014)
